Experimental data from a melting point compilation (Tetko et al.; mined from patent text by program, amines drawn as free bases though some values may be those of a salt).

| melting point [°C] | SMILES |
| --- | --- |
| 83.4 to 85.3 | Nc1ccccc1Cn1cc(C(F)(F)F)ccc1=O |
| 123 to 124 | COC(=O)c1cc(Cl)ccc1-n1c(C)nnc1CCl |
| 226 to 227 | O=c1c(Cc2cccnc2)cc2cccnc2n1-c1cccc([N+](=O)[O-])c1 |
| 161 to 163 | O=C1c2ccc([N+](=O)[O-])cc2S(=O)(=O)N1CSc1ccccc1 |
| > 300 | CCCn1cc2c(C3C(=O)Nc4ccc(C#N)cc43)nc(NCCc3ccccn3)nc2n1 (stereo not drawn) |
| 156 to 158 | O=c1c2cc(F)ccc2nc(NCc2ccccn2)n1-c1ccccc1Cl |
| 171 to 173 | COc1ccc(S(=O)(=O)N2c3ccccc3-c3ccccc3C2C)cc1C (stereo not drawn) |
| 255 to 257 | Cc1cccc2c(=O)n3c(nc12)C(=O)c1cc(F)ccc1-3 |
| 147 to 149 | O=c1c2c(Cl)cc(Cl)cc2n(Cc2ccccc2)c(=O)n1CC1CCCCC1 |
| 152 to 153 | CSCc1cccc(-c2nc(=O)c3ccccc3s2)n1 |
| 90 to 92 | C=CCc1c(OCc2ccccc2)ccc2c(=O)ccoc12 |
| 153 to 160 | c1ccc(NCCN2CCN(c3cccc4[nH]ccc34)CC2)nc1 |
| 229 | CCOC(=O)c1ccc(COCc2csc3nc(C(=O)NCc4ccccc4)[nH]c(=O)c23)cc1 |
| 223 | Oc1ccc2nccc(Cl)c2c1 |
| 103 to 106 | O=C(CSc1ncccn1)NC/C=C\COc1cc(CN2CCCCC2)ccn1 |
| > 340 | COc1ccc(-c2ccc(C(=N)NO)cc2)cc1-c1nc2cc(C(=N)NO)ccc2[nH]1 |
| 133 to 134 | CCCCNC(=O)Nc1ccccc1CCc1cc(C(C)(C)C)c(O)c(C(C)(C)C)c1 |
| 262 to 263 | COc1cccc(-c2[nH]c(-c3ccc(N)cc3)nc2C(=O)Nc2nccs2)c1 |
| 55 to 58 | OCC(O)Cc1cccc(Cc2ccccc2)c1OCc1ccccc1 (stereo not drawn) |

| melting point [°C] | SMILES |
| --- | --- |
| 131 | CNC(=O)[C@@H]1CCCN1S(=O)(=O)c1ccc(Cl)c(COc2cccc3c2NC(C)(C)C=C3n2cncn2)c1Cl |
| 164 to 167 | CN(C)c1sc2cc(OCc3ccccc3)ccc2c1C(=O)c1ccc(F)c(C(F)(F)F)c1 |
| 181 to 182 | Cc1oc(-c2ccco2)nc1COc1ccc(COc2nn(Cc3ccccc3)cc2C(=O)O)cc1-c1ccccc1 |
| 275 to 278 | O=S1(=O)c2ccccc2NC(=S)c2ccc(C(F)(F)F)cc21 |
| 201 to 203 | COCc1c(C(=O)OC(C)C)ncc2[nH]c3cccc(Oc4ccccc4)c3c12 |
| 146 to 148 | O=c1ccc(Br)cn1CC1(O)CCN(Cc2ccccc2)CC1 |
| 220 to 221 | OCCCn1cc(-c2cc3nccnc3[nH]2)c2ccccc21 |
| 215 to 217 | CC(=O)c1ccccc1Nc1nc(Nc2ccc3c(c2)CCCC(=O)N3C)ncc1Cl |
| 170 to 171 | N#Cc1cc(NC(=O)c2cccn2-c2ccc(F)cc2)ccc1N1CCN(CCO)CC1 |
| 243 to 244 | N#Cc1cc(C2=Nc3ccc(-n4cccc4)cc3NC(=O)C2)ccn1 |
| 164 to 166 | O=C1[C@H]2CCCC[C@H]2Nc2ccccc2N1Cc1ccccc1 (relative stereo) |
| 222 to 224 | N#Cc1cnc(NS(=O)(=O)c2cccc(Cl)c2Cl)c(OCc2cccnc2)n1 |
| 154 to 157 | COc1ccc(CC2CNC(=O)N2)cc1OCc1ccccc1 (stereo not drawn) |
| 190 | COc1ccc(CN(C)CCc2ccc(NC(=O)c3cccc4c(=O)c5cccc(SC)c5[nH]c34)cc2)cc1OC |
| 99.5 to 100 | O=[N+]([O-])c1cccc(-c2ccccc2O)c1 |
| 199 to 200 | O=[N+]([O-])c1ccc2[nH]c(-c3ccccc3)cc2c1 |
| 117 to 118 | CN1CCC(Nc2ccccc2C(=N)c2ccccc2)CC1 |
| 80 to 81 | CCOC(=O)C1CCN(c2nc(-c3ccc(Cl)cc3)c(CCCOc3ccccc3OC)o2)CC1 |
| 135 | Cc1cc(NCCO)c2[nH]nc(-c3ccccc3)c2n1 |

Continued, molecule first:

| SMILES | melting point [°C] |
| --- | --- |
| COc1cc(-c2csc(C3CC3)n2)cc2oc(=O)c(C)c(C)c12 | 151 |
| Cc1ccc2c(c1)C(=O)N(CC(=O)N1c3ccccc3N(Cc3ccccc3)C(=O)[C@H]3CCC[C@H]31)C2=O (relative stereo) | 237 to 238 |
| OC(c1ccc(Cl)cc1)(c1ccc(Cl)cc1)c1ccns1 | 118 to 120 |
| CCCCCCCCCCCCCCCCCC(=O)c1ccc(OC)c(C(=O)O)c1 | 194 to 196 |
| O=S(=O)(c1ccccc1)C(F)(F)C(O)c1ccc(Cl)cc1 (stereo not drawn) | 100 to 102 |
| N#Cc1ccc(C=NO)c([N+](=O)[O-])c1 | 162 to 163 |
| Cc1cc(O)c(C2CCCCC2)cc1Sc1cc(C2CCCCC2)c(O)cc1C | 128 to 130 |
| CN(C(=O)c1ccc(Cl)c(Cl)c1)C1CCN(C)C12CCCCC2 (stereo not drawn) | 138 to 140 |
| CC1(C)CCC(C)(C)c2cc(-c3cc(-c4ccc(C(=O)O)cc4)ccc3-c3ccccc3O)ccc21 | 161 to 163 |
| O=C(Nc1ccc(-n2nc(C(F)(F)F)cc2C(F)(F)F)cc1)c1ccc([N+](=O)[O-])cc1 | 185 to 188 |
| CC(C)NC(=O)N1CCC(Cc2ccc(NC3=NCCN3)cc2)CC1 | 191 to 192 |
| CCOC(=O)C(CC(=O)c1ccc(Oc2ccccc2)cc1)SC(=O)c1ccccc1 (stereo not drawn) | 95 to 96 |
| CN1C(=O)CC[C@]2(C)c3ccc(C(=O)OC(c4ccccc4)c4ccccc4)cc3CC[C@@H]12 | 130 to 131 |
| N#CSc1ccc(F)c(C#N)c1 | 39 to 41 |
| CCCCCCCCCCCCCCCCCCNC(=O)OCC(CNS(=O)(=O)CCCCl)NC(C)=O (stereo not drawn) | 110 to 112 |
| O=C1CCN(C(=O)c2ccc(Cl)cc2)CC1 | 61 to 63 |
| CC1CCN(c2c(C#N)c3c(c4c2CCc2ccccc2-4)-c2ccccc2C3)CC1 | 152 to 154 |
| CC1(C)CCC(C(=O)N2CCC[C@H]2C(=O)O)C1S (stereo partly drawn) | 153 |
| Cc1cc(-n2c(=O)cc(C(F)(F)F)[nH]c2=O)c(F)cc1Br | 186 |
| O=c1occc2ccc(Oc3ccc(Cl)cc3)cc12 | 76.5 to 77 |

| SMILES | melting point [°C] |
| --- | --- |
| CCOC(=O)C(Cc1ccc(C(F)(F)F)cc1)C(=O)c1ccoc1 (stereo not drawn) | 55 to 56 |
| Cc1ccc(-c2cccc(/C=C/C(=O)Nc3ccc(-c4cccnc4)cc3)c2)cc1 | 213 to 214 |
| COc1cc2c(cc1O)C(O)CN(Cc1cc(OC)c(OC)c(OC)c1)C2 (stereo not drawn) | 62 to 63 |
| Cc1c(C#N)c(N)n(-c2ccc([N+](=O)[O-])cc2)c1C | 310 |
| COCOc1ccc(Cl)cc1-c1cc(-c2cccc([N+](=O)[O-])c2)c(C#N)c(NC(=O)c2cccs2)n1 | 161 to 162 |
| CC12CCC3C(CCC4CC(F)CCC43C)C1CCC2O (stereo not drawn) | 150 to 151 |
| CCOc1nc(C)c(N2CCCn3c2nc2c(Cl)ccc(C(OC(F)F)C(F)(F)F)c23)c(C)n1 (stereo not drawn) | 218 to 220 |
| O=C(c1ccc(-c2ccnnc2)cc1)N1CCN(S(=O)(=O)c2cc3cc(Cl)ccc3[nH]2)CC1 | 170 to 172 |
| CN1CCN=C(c2ccccc2)c2cc([N+](=O)[O-])ccc21 | 186 to 187 |
| O=C(O)c1ccc(NC(=O)C(CC2CCCC2)c2cccc(Cl)c2)nc1 (stereo not drawn) | 251 to 255 |
| CCOC(=O)C=C(C)c1ccc(-c2ccccc2)cc1 | 76 to 78 |
| COc1cc2c(c(OC)c1OC)C[C@@H](N1CCN(C(=O)C=Cc3ccccc3)CC1)[C@@H]2O (relative stereo) | 162 to 163 |
| Cc1cc([N+](=O)[O-])cc2c(Cl)c(C#N)cnc12 | 210 to 212 |
| Cc1nc(N2CCC(NCCC3CC3)C2=O)sc1C(=O)NCc1ccc(F)cc1 (stereo not drawn) | 151 to 152 |
| CONC(=NCCSCc1[nH]cnc1C)NC#N | 155 to 156 |
| Nc1nnc(Cc2cccc(C(F)(F)F)c2)s1 | 174 to 176 |
| CN(C)C(=N[N+](=O)[O-])N(Cc1cnc(Cl)s1)S(C)(=O)=O | 82 to 86 |
| CC(C)(CO)c1cc(C#N)ccc1O | 129 to 130 |
| CN(Cc1cc(Cl)c(O)c(Br)c1)C1CCCCC1 | 136 to 138 |
| CCNC(=O)NCc1cccc2c1C(=O)N(C1(C)CCC(=O)NC1=O)C2=O (stereo not drawn) | 220 to 222 |

| SMILES | melting point [°C] |
| --- | --- |
| CCCCOC(=O)C(COC(C)(C)C)NC(=O)c1ccc2c(Cl)cnc(NC(=N)N)c2c1 (racemic) | 215 to 219 |
| CCCC(CCC)c1ccc(COc2ccc(-c3csc(COc4cncc(C(=O)O)c4)n3)cc2)cc1 | 172 to 174 |
| FC(F)(F)c1ccc(Cl)cn1 | 36 to 37 |
| Clc1ccc(C2CCc3ccccc3O2)cc1 (stereo not drawn) | 76 to 77 |
| Cc1c(Cc2ccc(Cl)cc2)sc2nc(N)[nH]c(=O)c12 | 300 to 320 |
| CCC(CC)n1nnc2c(Oc3c(C)cc(C)cc3C)nc(C)c(C)c21 | 127 to 129 |
| C=CCCC(=O)N1C(=O)OC[C@@H]1C(C)C | 119 to 120 |
| NNc1ccc(Cl)cc1Cl | 90 to 91 |
| O=C(Nc1ccc(F)cc1)NC1CCN(C(=O)c2ccc(C(=O)O)cc2)CC1 | 195 to 198 |
| CCC(C)COc1ccc(-c2ccc(O)cc2)cc1C#N (stereo not drawn) | 181 |
| CCOC(=O)C1CCC2(CCN(S(=O)(=O)c3ccc(C)cc3)c3ccccc3C2)C1O (stereo not drawn) | 139 to 140 |
| CC1=C(C)C(=O)N(c2ccc(C)c(NS(=O)(=O)C(F)(F)F)c2)C1=O | 152 to 154 |
| Cc1c(F)c(N2CCN(C)CC2)c(C)c2c1c(=O)c(C(=O)O)cn2C1CC1 | 205 to 206 |
| CC1=CC(O)C(OC(=O)c2ccccc2Cl)C(C)(C)CC1=O (stereo not drawn) | 92.5 to 94 |
| O=c1c([N+](=O)[O-])c[nH]n1-c1c(Cl)cc(C(F)(F)F)cc1Cl | 100 to 108 |
| CCC(C)n1c(Nc2cc(C(F)(F)F)ccc2C(F)(F)F)nc(C(F)(F)F)c(Cl)c1=O (stereo not drawn) | 133 to 135 |
| Cc1cc(Br)ccc1-n1c(CF)nc2ccc([N+](=O)[O-])cc2c1=O | 208 to 210 |
| COc1ccc(-c2cncc(OC3SCC(OC(C)=O)C(OC(C)=O)C3OC(C)=O)c2)c(C)c1 (stereo not drawn) | 283 |
| Brc1ccc(C2CCCc3cncn32)cc1 (stereo not drawn) | 216 |
| O=C1c2c(Cl)cccc2-n2cnc(-c3cccs3)c2[C@@H]2CCCN12 | 226 to 227 |
